Some test systems named below: LOX IMVI melanoma; U251 CNS; OVCAR-5 ovarian; TK-10 renal; NCI-H460 lung; UO-31 renal; NCI/ADR-RES ovarian; HCC-2998 colon; MDA-MB-231 breast; SN12C renal.
Assay in all cases: NCI anticancer screen, dose series, 48 h

Among the data in PubChem BioAssay (NCI) are TGI values, retold here.

Molecules are shown by their SMILES.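 Growth conditions: 96-well plates. Treatment: test compound, 48 hours, 5 concentrations. Analysis: linear interpolation between bracketing concentrations; unreached endpoints set to highest concentration. At the TGI there is no net growth.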 A value given as a limit tells only on which side of the number the result lay.

For `C=C(C)C1CCC2(C)C1CCC1(C)C2CCC2C3(C)C4OC(OC4=O)C(C)(C)C3CCC21C` (stereo not given), the TGI with LOX IMVI melanoma, with U251 CNS, in the test on OVCAR-5 ovarian, in the test with TK-10 renal, in the test on NCI-H460 lung and with UO-31 renal was above 100 µM throughout. The TGI in the test with NCI/ADR-RES ovarian, in the test with HCC-2998 colon, with MDA-MB-231 breast and with SN12C renal was above 100 µM in each case.
For `COc1cc2c(cc1OC)C(C1CC1)ON(C)CC2` (stereo not given), the TGI with LOX IMVI melanoma, with U251 CNS, in the test with OVCAR-5 ovarian, with TK-10 renal, with NCI-H460 lung and in the test on UO-31 renal was above 100 µM in each case. Besides, the TGI in the test on NCI/ADR-RES ovarian, with HCC-2998 colon, in the test with MDA-MB-231 breast and in the test on SN12C renal was above 100 µM in each case.
With `CC(=O)N1CN2C(=O)CCC2c2cc(C)ccc21` (stereo not given), the TGI in the test on LOX IMVI melanoma, in the test with U251 CNS, in the test with OVCAR-5 ovarian, in the test with TK-10 renal, with NCI-H460 lung and in the test on UO-31 renal was above 100 µM in each case. The TGI with NCI/ADR-RES ovarian, in the test on HCC-2998 colon, with MDA-MB-231 breast and in the test with SN12C renal was above 100 µM each time.
Take `O=c1[nH]c(NCCCCCO)nc2nc[nH]c12`: the TGI in the test on LOX IMVI melanoma, in the test with U251 CNS, in the test with OVCAR-5 ovarian, in the test on TK-10 renal, in the test with NCI-H460 lung and with UO-31 renal was above 100 µM each time. In addition, the TGI in the test with NCI/ADR-RES ovarian, in the test with HCC-2998 colon, in the test with MDA-MB-231 breast and with SN12C renal was above 100 µM throughout.
Consider `COc1cc2ccc(C(C)NCC#N)cc2cc1OC` (stereo not given), for which the TGI with LOX IMVI melanoma, in the test on U251 CNS, with OVCAR-5 ovarian, in the test with TK-10 renal, in the test on NCI-H460 lung and with UO-31 renal was above 100 µM each time. The TGI in the test on NCI/ADR-RES ovarian, in the test on HCC-2998 colon, with MDA-MB-231 breast and in the test on SN12C renal was above 100 µM each time.
For `O=c1ccc(=O)c2c1c1[nH]c3ccccc3c1c1c(=O)c3ccccc3c(=O)c21`, the TGI in the test on LOX IMVI melanoma, with U251 CNS, in the test on OVCAR-5 ovarian, in the test with TK-10 renal, with NCI-H460 lung and with UO-31 renal was above 10 µM throughout. Further, the TGI in the test with NCI/ADR-RES ovarian, with HCC-2998 colon, with MDA-MB-231 breast and in the test with SN12C renal was above 10 µM each time.
Consider `C=C(CCC(=O)N(CCc1c[nH]c2ccccc12)C(=O)c1ccccc1CSCC)C(=O)OC`, for which the TGI in the test with LOX IMVI melanoma, in the test with U251 CNS, with OVCAR-5 ovarian, in the test with TK-10 renal, with NCI-H460 lung and in the test with UO-31 renal was above 100 µM in each case. Also, the TGI in the test with NCI/ADR-RES ovarian was above 100 µM; with HCC-2998 colon, above 95.4 µM; in the test with MDA-MB-231 breast it was above 100 µM; in the test with SN12C renal, above 100 µM.
On to `c1csc(-c2cc(-c3ccsc3)cs2)c1`, for which the TGI with LOX IMVI melanoma, in the test with U251 CNS, with OVCAR-5 ovarian, in the test on TK-10 renal, with NCI-H460 lung and with UO-31 renal was above 100 µM in each case. Moreover, the TGI with NCI/ADR-RES ovarian, with HCC-2998 colon, in the test with MDA-MB-231 breast and in the test on SN12C renal was above 100 µM throughout.
Take `CC(C)(C)C(=O)C(N)C(=O)C(C)(C)C`: the TGI in the test with LOX IMVI melanoma, in the test with U251 CNS, with OVCAR-5 ovarian, with TK-10 renal, in the test with NCI-H460 lung and in the test on UO-31 renal was above 100 µM in each case. For the same molecule, the TGI in the test on NCI/ADR-RES ovarian, in the test with HCC-2998 colon, in the test with MDA-MB-231 breast and in the test with SN12C renal was above 100 µM throughout.
Turning to `CCOC(=O)NC(Nc1ccc(C(=O)O)cc1)(C(F)(F)F)C(F)(F)F`, the TGI with LOX IMVI melanoma, in the test with U251 CNS, with OVCAR-5 ovarian, with TK-10 renal, in the test on NCI-H460 lung and in the test with UO-31 renal was above 100 µM each time. Besides, the TGI in the test with NCI/ADR-RES ovarian, with HCC-2998 colon, with MDA-MB-231 breast and in the test on SN12C renal was above 100 µM throughout.
Take `COC(=O)c1sc2c(Cl)c(Cl)sc2c1Cl`: the TGI was above 100 µM in the test on LOX IMVI melanoma; above 100 µM in the test on U251 CNS; above 100 µM in the test on OVCAR-5 ovarian; 82 µM with TK-10 renal; above 100 µM with NCI-H460 lung; above 100 µM in the test on UO-31 renal. The TGI with NCI/ADR-RES ovarian, in the test with HCC-2998 colon, in the test with MDA-MB-231 breast and in the test with SN12C renal was above 100 µM each time.
Turning to `CCOC(=O)CC1(N)CC2c3ccccc3OC(=O)C2C(=O)N1` (stereo not given), the TGI with LOX IMVI melanoma, in the test on U251 CNS, in the test on OVCAR-5 ovarian, with TK-10 renal, in the test on NCI-H460 lung and in the test on UO-31 renal was above 100 µM in each case. Besides, the TGI with NCI/ADR-RES ovarian, with HCC-2998 colon, with MDA-MB-231 breast and in the test on SN12C renal was above 100 µM in each case.
Consider `C[N+](C)([O-])C12CC3CC(CC(C3)C1)C2`, for which the TGI in the test on LOX IMVI melanoma is 63.8 µM; with U251 CNS, above 100 µM; in the test with OVCAR-5 ovarian, above 100 µM; with TK-10 renal, 88 µM; in the test with NCI-H460 lung it was above 100 µM; in the test on UO-31 renal, 80.6 µM. Further, the TGI in the test with NCI/ADR-RES ovarian, in the test on HCC-2998 colon, in the test with MDA-MB-231 breast and with SN12C renal was above 100 µM each time.
`CC[P+](c1ccccc1)(N(C)C)N(C)C`: the TGI in the test with LOX IMVI melanoma, in the test on U251 CNS, with OVCAR-5 ovarian, in the test on TK-10 renal, in the test with NCI-H460 lung and in the test on UO-31 renal was above 100 µM each time. For the same molecule, the TGI with NCI/ADR-RES ovarian, in the test on HCC-2998 colon, with MDA-MB-231 breast and in the test on SN12C renal was above 100 µM in each case.
On to `CC(=O)CCN1CC2CN=NC2(C#N)C1` (stereo not given), for which the TGI in the test on LOX IMVI melanoma, in the test with U251 CNS, in the test on OVCAR-5 ovarian, in the test with TK-10 renal, with NCI-H460 lung and in the test with UO-31 renal was above 100 µM in each case. The TGI with NCI/ADR-RES ovarian, with HCC-2998 colon, in the test on MDA-MB-231 breast and with SN12C renal was above 100 µM throughout.
Take `COC1=C(OC)C(=O)C(Cc2c(-c3ccccc3)nc3sc(Cl)cn23)=C(C)C1=O`: the TGI in the test on LOX IMVI melanoma came to 71.7 µM; in the test on U251 CNS it was 40.1 µM; with OVCAR-5 ovarian it was 56.5 µM; in the test with TK-10 renal, 45 µM; in the test with NCI-H460 lung, 40 µM; in the test with UO-31 renal it was 30.5 µM. Further, the TGI in the test with NCI/ADR-RES ovarian amounted to 39.9 µM; in the test with HCC-2998 colon, 46.6 µM; in the test with MDA-MB-231 breast it was 24.6 µM; in the test on SN12C renal it was 30.4 µM.
For the molecule `CC1=NN(c2cc(Cl)c(S(=O)(=O)O)cc2Cl)C2(C1)C(Cl)C(=O)N2c1nc2ccccc2s1` (stereo not given), the TGI in the test with LOX IMVI melanoma was above 100 µM; in the test with U251 CNS, above 100 µM; in the test on OVCAR-5 ovarian, above 100 µM; in the test with TK-10 renal it was above 100 µM; in the test on NCI-H460 lung, above 100 µM; in the test with UO-31 renal, 76.5 µM. Moreover, the TGI in the test on NCI/ADR-RES ovarian, in the test on HCC-2998 colon, in the test on MDA-MB-231 breast and in the test on SN12C renal was above 100 µM throughout.
